Assay results as given in PubChem BioAssay AID2060893 (Molecular Pharmacology Branch, DTP, NCI, 2025).

Tested on: K86415-001-R-J1-PDC complex spheroids, viability
Assay: Anticancer human tumor K86415-001-R-J1-PDC patient-derived lung adenocarcinoma cell line growth inhibition [RAS]
Settings: for IC50: curve of first compound; for viability, T/C: stronger effect = lower value
Procedure, shortened: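 Tumour cells grown as complex spheroids with HUVEC endothelial cells and mesenchymal stem cells, treated with RAS pathway inhibitor combinations. Each agent spans half-log steps from near clinical Cmax, or 10 microM where Cmax is unknown.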
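Further: spheroids exposed to agents for seven days before readout.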

With `CC(=O)OC12COC1CC(O)C1(C)C(=O)C(O)C3=C(C)C(OC(=O)C(O)C(NC(=O)OC(C)(C)C)c4ccccc4)CC(O)(C(OC(=O)c4ccccc4)C21)C3(C)C` (configuration not stated) + CCn1c(-c2cccnc2C(C)OC)c2c3cc(ccc31)N1CCOC(CC(NC(=O)C(C(C)C)N(C)C(=O)C3(F)CCN(C(=O)C#CC(C)(C)N(C)C)CC3)C(=O)N3CCCC(N3)C(=O)OCC(C)(C)C2)C1 the IC50 (second compound 0.000949 µM) was under 31.6 nM, the IC50 (second compound 0.003 µM) was under 31.6 nM and the IC50 (second compound 0.00949 µM) was under 31.6 nM. It also gave an IC50 (second compound 0.03 µM) of under 31.6 nM, an IC50 (second compound 0.0949 µM) of under 31.6 nM and an IC50 (second compound 0.3 µM) of under 31.6 nM. For the same molecule, the viability, T/C (second compound 0.000949 µM, first compound 0.0316 µM) was 18.7%, the viability, T/C (second compound 0.000949 µM, first compound 0.1 µM) was 15.3% and the viability, T/C (second compound 0.000949 µM, first compound 0.316 µM) was 11.3%. The viability, T/C (second compound 0.000949 µM, first compound 1 µM) was 17.3%, the viability, T/C (second compound 0.000949 µM, first compound 3.16 µM) was 16.2% and the viability, T/C (second compound 0.000949 µM, first compound 10 µM) was 12.4%. For the same molecule, the viability, T/C (second compound 0.003 µM, first compound 0.0316 µM) was 15.4%, the viability, T/C (second compound 0.003 µM, first compound 0.1 µM) was 12% and the viability, T/C (second compound 0.003 µM, first compound 0.316 µM) was 11.3%. The viability, T/C (second compound 0.003 µM, first compound 1 µM) was 10.1%, the viability, T/C (second compound 0.003 µM, first compound 3.16 µM) was 12.7% and the viability, T/C (second compound 0.003 µM, first compound 10 µM) was 9.57%. For the same molecule, the viability, T/C (second compound 0.00949 µM, first compound 0.0316 µM) was 13.6%, the viability, T/C (second compound 0.00949 µM, first compound 0.1 µM) was 10.8% and the viability, T/C (second compound 0.00949 µM, first compound 0.316 µM) was 12.1%. It also gave a viability, T/C (second compound 0.00949 µM, first compound 1 µM) of 11.7%, a viability, T/C (second compound 0.00949 µM, first compound 3.16 µM) of 11.5% and a viability, T/C (second compound 0.00949 µM, first compound 10 µM) of 7.67%. The viability, T/C (second compound 0.03 µM, first compound 0.0316 µM) was 10.3%, the viability, T/C (second compound 0.03 µM, first compound 0.1 µM) was 14.9% and the viability, T/C (second compound 0.03 µM, first compound 0.316 µM) was 10.9%. The viability, T/C (second compound 0.03 µM, first compound 1 µM) was 11.3%, the viability, T/C (second compound 0.03 µM, first compound 3.16 µM) was 10.9% and the viability, T/C (second compound 0.03 µM, first compound 10 µM) was 12.1%. For the same molecule, the viability, T/C (second compound 0.0949 µM, first compound 0.0316 µM) was 11.4%, the viability, T/C (second compound 0.0949 µM, first compound 0.1 µM) was 9.46% and the viability, T/C (second compound 0.0949 µM, first compound 0.316 µM) was 10.1%. It also gave a viability, T/C (second compound 0.0949 µM, first compound 1 µM) of 10.8%, a viability, T/C (second compound 0.0949 µM, first compound 3.16 µM) of 6.98% and a viability, T/C (second compound 0.0949 µM, first compound 10 µM) of 8.55%. It also gave a viability, T/C (second compound 0.3 µM, first compound 0.0316 µM) of 10.3%, a viability, T/C (second compound 0.3 µM, first compound 0.1 µM) of 7.45% and a viability, T/C (second compound 0.3 µM, first compound 0.316 µM) of 7.7%. The viability, T/C (second compound 0.3 µM, first compound 1 µM) was 5.41%, the viability, T/C (second compound 0.3 µM, first compound 3.16 µM) was 6.82% and the viability, T/C (second compound 0.3 µM, first compound 10 µM) was 7.01%.
